Drawing on patent publication US20120270237A9, “METHODS FOR THE IDENTIFICATION OF KINASE INTERACTING MOLECULES AND FOR THE PURIFICATION OF KINASE PROTEINS” (Cellzone AG, priority 2009, published 2012), this text covers inhibition and Competition % for one molecule.

What all share (assay): Kinobeads competition binding, L-363 cell lysate
Common to all, as to parameters: endogenous in cells
What all share (conditions): 10 μM free compound, L-363 lysate

The target of test [1] is ALK2 (Homo sapiens, UniProt Q04771). The procedure: (§1) To one aliquot of cell lysate 10 μM of the free compound (FIG. 3, CZC31326) was added and allowed to bind to proteins in the lysate. Then the affinity matrix with the immobilized compound was added to capture proteins that were not interacting with the previously added free compound. Beads were separated from the lysate and bead bound proteins were eluted in SDS sample buffer and subsequently separated by SDS-Polyacrylamide gel electrophoresis (FIG. 8). Suitable gel bands were cut out and subjected to in-gel proteolytic digestion with trypsin. The second lysate aliquot was processed identically, however no free compound was added (DMSO solvent control). Peptides originating from samples 1 and 2 were labeled with iTRAQ reagents (iTRAQ 114 and iTRAQ 117) and the combined samples were analyzed with a nano-flow liquid chromatography system coupled online to a tandem mass spectrometer (LC-MS/MS) experiment followed by iTRAQ reporter ion quantification in the MS/MS spectra as described in Example 2.
(§2) For this experiment the human plasma cell leukaemia line L-363 was used (German Collection of Microorganisms and Cell Cultures, DSMZ number ACC49, Braunschweig, Germany). Cells were treated for three hours with 20 μM of the proteasome inhibitor MG132 (Z-Leu-Leu-Leu-al, Sigma C2211) prior to cell harvesting.

The target in test [2] is CDK9 (Homo sapiens, UniProt P50750). The protocol:
as §1, §2

For test [3], the target named is CaMK2g (Homo sapiens, UniProt Q13555). The procedure: as §1, §2
For test [4], the target named is FER (Homo sapiens, UniProt P16591). The protocol: as §1, §2
Test [5] deals with T1, IRAK4 (Homo sapiens, UniProt Q9NWZ3).
T1 sequence (Q9NWZ3 1-460): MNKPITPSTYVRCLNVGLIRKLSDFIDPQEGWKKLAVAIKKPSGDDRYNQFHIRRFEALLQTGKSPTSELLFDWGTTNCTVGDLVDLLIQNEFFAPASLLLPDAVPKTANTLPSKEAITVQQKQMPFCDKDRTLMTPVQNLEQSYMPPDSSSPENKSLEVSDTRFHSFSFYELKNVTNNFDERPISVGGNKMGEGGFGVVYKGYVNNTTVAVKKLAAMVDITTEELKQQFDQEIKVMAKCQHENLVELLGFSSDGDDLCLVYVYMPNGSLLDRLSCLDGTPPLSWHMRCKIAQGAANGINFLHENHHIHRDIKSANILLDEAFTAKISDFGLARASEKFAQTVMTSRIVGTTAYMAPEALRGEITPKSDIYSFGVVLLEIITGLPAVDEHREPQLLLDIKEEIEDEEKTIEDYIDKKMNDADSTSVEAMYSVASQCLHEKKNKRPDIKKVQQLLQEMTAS
The protocol:
as §1, §2

The target of test [6] is T2, PIP5K2C (Homo sapiens, UniProt Q8TBX8).
T2 sequence (Q8TBX8 1-421): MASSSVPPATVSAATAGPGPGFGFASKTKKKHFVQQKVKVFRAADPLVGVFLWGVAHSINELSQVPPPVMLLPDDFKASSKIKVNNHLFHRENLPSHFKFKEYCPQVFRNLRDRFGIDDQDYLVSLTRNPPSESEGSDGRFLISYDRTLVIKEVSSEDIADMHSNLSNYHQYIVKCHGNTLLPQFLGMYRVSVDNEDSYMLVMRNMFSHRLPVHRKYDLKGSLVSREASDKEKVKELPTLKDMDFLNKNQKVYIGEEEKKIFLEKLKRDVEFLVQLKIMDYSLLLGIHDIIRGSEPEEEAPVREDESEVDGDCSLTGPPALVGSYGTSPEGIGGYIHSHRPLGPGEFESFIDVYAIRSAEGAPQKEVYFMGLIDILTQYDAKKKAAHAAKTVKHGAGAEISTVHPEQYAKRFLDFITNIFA
The procedure:
as §1, §2

For test [7], the target named is T3, TAO3 (Homo sapiens, UniProt Q9H2K8).
T3 sequence (Q9H2K8 1-898): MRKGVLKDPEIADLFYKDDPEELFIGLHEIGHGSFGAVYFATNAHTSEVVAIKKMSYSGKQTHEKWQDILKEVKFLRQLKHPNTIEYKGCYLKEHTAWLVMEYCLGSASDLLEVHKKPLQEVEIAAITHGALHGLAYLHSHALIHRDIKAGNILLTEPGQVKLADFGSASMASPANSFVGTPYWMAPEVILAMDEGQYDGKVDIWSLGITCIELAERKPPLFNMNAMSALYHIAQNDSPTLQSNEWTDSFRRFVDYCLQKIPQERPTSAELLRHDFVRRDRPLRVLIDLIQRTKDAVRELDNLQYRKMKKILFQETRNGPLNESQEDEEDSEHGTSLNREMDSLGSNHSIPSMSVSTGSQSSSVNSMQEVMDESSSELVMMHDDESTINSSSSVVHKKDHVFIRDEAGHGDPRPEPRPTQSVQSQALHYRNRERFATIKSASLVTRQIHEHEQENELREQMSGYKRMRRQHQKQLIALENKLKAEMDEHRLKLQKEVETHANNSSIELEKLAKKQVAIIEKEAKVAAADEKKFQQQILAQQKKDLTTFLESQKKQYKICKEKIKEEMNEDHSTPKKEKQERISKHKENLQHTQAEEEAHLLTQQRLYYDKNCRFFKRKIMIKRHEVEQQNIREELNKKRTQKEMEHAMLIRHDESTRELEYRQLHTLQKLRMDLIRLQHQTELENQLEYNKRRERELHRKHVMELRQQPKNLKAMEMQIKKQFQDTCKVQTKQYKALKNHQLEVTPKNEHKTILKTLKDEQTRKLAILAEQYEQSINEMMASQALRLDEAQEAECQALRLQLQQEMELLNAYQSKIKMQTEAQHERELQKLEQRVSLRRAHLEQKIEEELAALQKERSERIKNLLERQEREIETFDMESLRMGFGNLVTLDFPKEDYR
The procedure: as §1, §2

In general, inhibition refers to the drop in the measured response relative to a control, in per cent. Read a high inhibition as a response far below the control.

CaMK2g, sequence (Q13555 whole entry): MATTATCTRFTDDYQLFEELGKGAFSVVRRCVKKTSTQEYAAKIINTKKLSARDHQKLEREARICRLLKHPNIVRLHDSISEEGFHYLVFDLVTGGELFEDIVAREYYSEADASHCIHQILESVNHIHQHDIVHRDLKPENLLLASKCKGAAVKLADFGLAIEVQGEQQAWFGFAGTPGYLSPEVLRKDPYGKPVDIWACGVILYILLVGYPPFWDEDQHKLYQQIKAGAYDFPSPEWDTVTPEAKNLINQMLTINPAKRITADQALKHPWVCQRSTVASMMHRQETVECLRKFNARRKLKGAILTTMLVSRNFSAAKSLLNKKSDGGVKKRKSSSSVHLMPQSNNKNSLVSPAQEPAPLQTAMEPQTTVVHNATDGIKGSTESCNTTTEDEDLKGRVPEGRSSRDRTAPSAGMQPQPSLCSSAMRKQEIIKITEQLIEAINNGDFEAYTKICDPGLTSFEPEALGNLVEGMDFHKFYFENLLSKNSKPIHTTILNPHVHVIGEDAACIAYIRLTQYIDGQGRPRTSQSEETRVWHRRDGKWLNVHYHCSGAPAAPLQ
FER, sequence (P16591 whole entry): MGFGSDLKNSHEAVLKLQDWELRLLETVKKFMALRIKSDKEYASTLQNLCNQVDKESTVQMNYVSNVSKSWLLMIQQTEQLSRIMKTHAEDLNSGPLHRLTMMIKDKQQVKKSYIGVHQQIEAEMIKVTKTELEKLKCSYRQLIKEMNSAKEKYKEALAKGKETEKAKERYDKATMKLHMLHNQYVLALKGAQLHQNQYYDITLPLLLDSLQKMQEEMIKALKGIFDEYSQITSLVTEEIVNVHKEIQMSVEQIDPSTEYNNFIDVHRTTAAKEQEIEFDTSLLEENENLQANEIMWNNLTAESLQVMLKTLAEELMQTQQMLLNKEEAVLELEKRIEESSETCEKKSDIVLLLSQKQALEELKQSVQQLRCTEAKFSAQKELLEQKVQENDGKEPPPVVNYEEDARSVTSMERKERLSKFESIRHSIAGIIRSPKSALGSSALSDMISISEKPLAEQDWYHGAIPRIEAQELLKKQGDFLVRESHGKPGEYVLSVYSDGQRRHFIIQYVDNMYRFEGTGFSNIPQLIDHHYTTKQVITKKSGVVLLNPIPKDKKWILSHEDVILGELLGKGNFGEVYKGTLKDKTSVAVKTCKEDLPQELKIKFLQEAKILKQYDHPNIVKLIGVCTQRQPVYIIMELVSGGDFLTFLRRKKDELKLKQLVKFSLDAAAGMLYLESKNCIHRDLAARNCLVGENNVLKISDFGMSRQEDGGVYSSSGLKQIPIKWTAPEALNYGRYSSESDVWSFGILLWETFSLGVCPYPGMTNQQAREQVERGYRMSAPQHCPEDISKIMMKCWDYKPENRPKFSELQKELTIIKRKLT
ALK2, sequence (Q04771 21-509): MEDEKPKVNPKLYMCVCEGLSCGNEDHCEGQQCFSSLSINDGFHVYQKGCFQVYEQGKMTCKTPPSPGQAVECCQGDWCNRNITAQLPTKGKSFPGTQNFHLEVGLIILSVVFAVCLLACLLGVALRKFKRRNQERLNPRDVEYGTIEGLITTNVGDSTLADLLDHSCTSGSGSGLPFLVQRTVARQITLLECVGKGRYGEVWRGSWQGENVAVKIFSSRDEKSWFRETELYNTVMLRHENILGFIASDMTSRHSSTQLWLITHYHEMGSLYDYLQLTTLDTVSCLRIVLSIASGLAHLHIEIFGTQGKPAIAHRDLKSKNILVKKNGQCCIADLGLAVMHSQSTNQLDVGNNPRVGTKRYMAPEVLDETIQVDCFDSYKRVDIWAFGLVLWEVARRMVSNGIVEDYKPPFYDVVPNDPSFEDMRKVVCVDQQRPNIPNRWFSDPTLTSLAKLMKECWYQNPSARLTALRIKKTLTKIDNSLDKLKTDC
CDK9, sequence (P50750 whole entry): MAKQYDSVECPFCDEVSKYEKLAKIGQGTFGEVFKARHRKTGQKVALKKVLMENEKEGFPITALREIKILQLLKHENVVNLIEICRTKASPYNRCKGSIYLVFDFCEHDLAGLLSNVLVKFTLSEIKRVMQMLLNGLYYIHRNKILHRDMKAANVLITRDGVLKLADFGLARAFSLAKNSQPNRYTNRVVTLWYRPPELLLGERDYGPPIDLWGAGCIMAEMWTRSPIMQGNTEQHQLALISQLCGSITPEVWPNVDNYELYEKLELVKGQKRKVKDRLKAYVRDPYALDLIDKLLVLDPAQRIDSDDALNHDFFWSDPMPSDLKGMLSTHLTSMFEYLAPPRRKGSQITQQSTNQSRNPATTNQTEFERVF

As to `CS(=O)(=O)Nc1ccccc1Nc1nc(Nc2cccc(OCCN)c2)ncc1Cl` [CZC31326, N-(2-(2-(3-(2-aminoethoxy)phenylamino)-5-chloropyrimidin-4-ylamino)phenyl)methanesulfonamide], the inhibition at 10 µM in test [1] stood at 95.7%; in test [2], 97.7%; in test [3] it was 75.9%; in test [4], 97.8%; in test [6] it was 92%; in test [7], 94.7%. Further, the Competition % in test [5] is recorded as 97.4%.
